This note sets out measurements from article PMC10023787, “Trio-pharmacophore DNA-encoded chemical library for simultaneous selection of fragments and linkers” (Nature Communications, 2023).

Structures are written as SMILES. Read-outs that look alike come from different tables or passages of the source.

One assay concerns the target T1, MMP-9 (Homo sapiens, UniProt P14780).
T1 construct: purchased Sino Biological 10327-HNAH
In words: MMP-9 inhibition assay (fluorogenic peptide substrate). Format: biochemical. Details: remaining enzyme activity (% of control): scale not given here. The method, then:
(§1) The inhibition by the small molecule compounds against MMP-2/MMP-9 was measured using an assay probing the enzyme proteolytic activity on the substrate DNP-Pro-Leu-Gly-Met-Trp-Ser-Arg (Enzo Life Sciences, USA). All assays were performed in the assay buffer containing 50 mM Tris, 100 mM NaCl. 5 mM CaCl2, and 0.1% Brij 35, pH 7.5. Human proMMP-2 and proMMP-9 were purchased from Sino biological (Germany). The proMMPs were activated by 1 mM APMA in the assay buffer at 37 °C for 2 h. After activation, MMP-2 was diluted to 6.5 nM of final assay concentration, and MMP-9 was diluted by the buffer to reach 10 nM of final assay concentration. In each well, 49 μl of enzyme solution was incubated with 1 μl of compounds of series of concentration (nM-mM in DMSO) at RT for 30 min. 2 μl of the FRET substrate was added right before the measurement at a final concentration of 25 μM. The rate of hydrolysis was monitored by quantifying the emission at 360 nm (ex: 280 nm). The emission was measured with intervals of the 30 s for 30 min with Synergy H1 Plate Reader (Agilent, USA). The measurements were done in triplicate. […] Then, curves were plotted as a function of the concentration of the inhibitor against the relative enzyme activity. Vmax was derived from the detected […] signal for each concentration and logistic fitting was performed to obtain IC50 values using Origin 2019b (OriginLab).

The next assay addresses T2, MMP-2 (Homo sapiens, UniProt P08253).
T2 construct: purchased Sino Biological 10082-HNAH
T2 sequence (P08253 110-660): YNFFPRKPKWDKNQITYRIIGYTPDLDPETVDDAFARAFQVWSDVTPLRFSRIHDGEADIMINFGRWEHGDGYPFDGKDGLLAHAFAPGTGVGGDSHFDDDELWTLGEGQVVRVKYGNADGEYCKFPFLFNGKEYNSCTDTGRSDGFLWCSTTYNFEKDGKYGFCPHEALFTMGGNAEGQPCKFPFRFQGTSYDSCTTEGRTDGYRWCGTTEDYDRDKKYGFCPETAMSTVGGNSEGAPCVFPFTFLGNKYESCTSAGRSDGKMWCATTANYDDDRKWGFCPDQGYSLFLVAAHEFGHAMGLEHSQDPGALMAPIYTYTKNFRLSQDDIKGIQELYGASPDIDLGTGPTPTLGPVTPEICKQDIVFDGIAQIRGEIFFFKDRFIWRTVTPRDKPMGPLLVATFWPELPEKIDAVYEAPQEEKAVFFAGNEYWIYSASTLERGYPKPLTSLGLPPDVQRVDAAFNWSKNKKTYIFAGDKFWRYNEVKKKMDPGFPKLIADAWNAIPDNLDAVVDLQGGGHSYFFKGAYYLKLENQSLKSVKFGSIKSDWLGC
In words: MMP-2 inhibition assay (fluorogenic peptide substrate). Format: biochemical. The method, then:
as §1

Where [1] appears, read: mean ± SE; n.d: not detected; Fig. 5e prints no unit, µM; read-out: IC50.
The mark [2] stands for this setting: mean ± SE; n.d: not detected; Fig. 5d unit inferred, µM; read-out: IC50.
The mark [3] stands for this setting: Figure 5d; fragment combination joined by linker; n.d: not detected; read-out: MMP9 IC50.
The mark [4] stands for this setting: Figure 5d; fragment combination joined by linker; n.d: not detected; read-out: MMP2 IC50.

T1 sequence (P14780 107-707 limits assumed): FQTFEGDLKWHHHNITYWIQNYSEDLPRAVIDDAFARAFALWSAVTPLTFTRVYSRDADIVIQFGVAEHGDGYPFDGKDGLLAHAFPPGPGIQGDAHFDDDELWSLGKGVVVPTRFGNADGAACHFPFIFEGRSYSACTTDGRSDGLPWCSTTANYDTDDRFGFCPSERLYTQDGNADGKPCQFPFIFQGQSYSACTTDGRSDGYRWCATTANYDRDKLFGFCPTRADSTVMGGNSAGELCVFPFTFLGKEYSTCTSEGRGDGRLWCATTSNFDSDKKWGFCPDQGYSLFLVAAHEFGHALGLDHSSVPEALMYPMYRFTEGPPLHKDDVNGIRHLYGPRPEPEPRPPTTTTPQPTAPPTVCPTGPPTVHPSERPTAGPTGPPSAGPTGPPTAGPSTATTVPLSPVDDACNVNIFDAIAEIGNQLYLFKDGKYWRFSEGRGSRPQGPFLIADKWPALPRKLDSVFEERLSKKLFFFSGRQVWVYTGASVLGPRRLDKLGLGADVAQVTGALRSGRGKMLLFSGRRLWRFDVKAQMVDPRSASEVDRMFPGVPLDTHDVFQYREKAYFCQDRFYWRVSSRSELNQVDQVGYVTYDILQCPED

`O=C(CCCCCCC(=O)NCC12CC3CC(CC(C3)C1)C2)NCc1c[nH]nn1` [66+787 Linker 4]: the “remaining enzyme activity (% of control)” value at MMP-9 (MMP-9; concentration 0.08 µM) is 101.70; at MMP-9 (MMP-9; concentration 0.39 µM), 95.25; at MMP-9 (MMP-9; concentration 1.95 µM), 95.00; on MMP-9 (MMP-9; concentration 9.75 µM) it was 100.64; on MMP-9 (MMP-9; concentration 48.76 µM), 91.07; at MMP-9 (MMP-9; concentration 243.80 µM), 93.01. The “remaining enzyme activity (% of control)” value at MMP-9 (MMP-9; concentration 1219.00 µM) came to 79.78. The “remaining activity (%)” value at MMP-2 (MMP-2; concentration 0.0156 µM) is recorded as 93.57; on MMP-2 (MMP-2; concentration 0.08 µM), 87.26; at MMP-2 (MMP-2; concentration 0.39 µM), 84.29; on MMP-2 (MMP-2; concentration 1.95 µM), 79.19; on MMP-2 (MMP-2; concentration 9.75 µM) it was 76.03; at MMP-2 (MMP-2; concentration 48.76 µM), 60.10. The figures for the “remaining activity (%)” value on MMP-2 (MMP-2; concentration 243.80 µM) and at MMP-2 (MMP-2; concentration 1219.00 µM) were 68.09 and 72.50, respectively.
In general, IC50 refers to the point on the concentration scale where inhibition reaches its midpoint. Consider `O=C(CSCCNC(=O)Cn1cnc2c(oc3ccccc32)c1=O)NCc1c[nH]nn1` [182+787 Linker 24], for which the “remaining enzyme activity (% of control)” value is 86.26 at MMP-9 (MMP-9, concentration 0.0855 µM); 83.15 on MMP-9 (MMP-9, concentration 0.43 µM); 95.29 on MMP-9 (MMP-9, concentration 2.14 µM); 93.78 at MMP-9 (MMP-9, concentration 10.69 µM); 70.78 on MMP-9 (MMP-9, concentration 53.44 µM); 19.03 at MMP-9 (MMP-9, concentration 267.20 µM). Besides, the IC50 was determined as 126 ± 9.6 µM at MMP-9 (setting [1]) and 45.9 ± 16.2 µM at MMP-2 (setting [2]). The “remaining activity (%)” value turned out to be 92.17 at MMP-2 (MMP-2, concentration 0.0171 µM); 86.66 on MMP-2 (MMP-2, concentration 0.0855 µM); 97.11 at MMP-2 (MMP-2, concentration 0.43 µM); 88.49 on MMP-2 (MMP-2, concentration 2.14 µM); 87.27 at MMP-2 (MMP-2, concentration 10.69 µM); 39.59 at MMP-2 (MMP-2, concentration 53.44 µM). The “remaining activity (%)” value at MMP-2 (MMP-2, concentration 267.20 µM) worked out at 13.68.
As for `Cc1cc(=O)[nH]c(-n2nc(C)c(CCC(=O)NCc3c[nH]nn3)c2C)n1` [693_787 1], the IC50 at MMP-9 (setting [3]) turned out to be 312 µM; at MMP-2 (setting [4]) it was 204 µM.
For `Cn1c(O)nc2cc(C(=O)NCCCCCCCCNC(=O)CNC(=O)NC34CC5CC(CC(C5)C3)C4)cnc21` [66+826 Linker 4], the “remaining enzyme activity (% of control)” value turned out to be 93.59 on MMP-9 (MMP-9; concentration 0.12 µM); 93.14 at MMP-9 (MMP-9; concentration 0.49 µM); 89.16 on MMP-9 (MMP-9; concentration 1.95 µM); 98.12 at MMP-9 (MMP-9; concentration 7.81 µM); 95.00 on MMP-9 (MMP-9; concentration 31.25 µM); 90.00 on MMP-9 (MMP-9; concentration 125.00 µM). The “remaining enzyme activity (% of control)” value at MMP-9 (MMP-9; concentration 500.00 µM) stood at 85.00. The “remaining activity (%)” value turned out to be 90.87 at MMP-2 (MMP-2; concentration 0.12 µM); 97.75 at MMP-2 (MMP-2; concentration 0.49 µM); 98.21 at MMP-2 (MMP-2; concentration 1.95 µM); 97.67 on MMP-2 (MMP-2; concentration 7.81 µM); 98.57 at MMP-2 (MMP-2; concentration 31.25 µM); 99.42 on MMP-2 (MMP-2; concentration 125.00 µM). Further, the “remaining activity (%)” value on MMP-2 (MMP-2; concentration 500.00 µM) came out at 77.03.
In the case of `O=C(Cn1cnc2c(oc3ccccc32)c1=O)NCCCCCCCCNC(=O)c1cncc(O)c1` [182+828 Linker 4], the “remaining enzyme activity (% of control)” value worked out at 90.17 at MMP-9 (MMP-9, concentration 0.08 µM); 88.39 at MMP-9 (MMP-9, concentration 0.39 µM); 91.84 on MMP-9 (MMP-9, concentration 1.95 µM); 88.91 on MMP-9 (MMP-9, concentration 9.75 µM); 78.10 at MMP-9 (MMP-9, concentration 48.76 µM); 49.14 on MMP-9 (MMP-9, concentration 243.80 µM). Moreover, the “remaining enzyme activity (% of control)” value at MMP-9 (MMP-9, concentration 1219.00 µM) came out at 0.00. Further, the values for the IC50 at MMP-9 (setting [1]) and on MMP-2 (setting [2]) were 233 ± 38.3 µM and 188 ± 25.7 µM, respectively. The “remaining activity (%)” value at MMP-2 (MMP-2, concentration 0.0078 µM) was determined as 107.56; at MMP-2 (MMP-2, concentration 0.20 µM) it was 99.59; at MMP-2 (MMP-2, concentration 0.98 µM) it was 97.94; on MMP-2 (MMP-2, concentration 4.88 µM), 101.19; at MMP-2 (MMP-2, concentration 24.38 µM), 85.36; on MMP-2 (MMP-2, concentration 121.90 µM), 64.62. The “remaining activity (%)” value at MMP-2 (MMP-2, concentration 609.50 µM) is reported as 31.91; on MMP-2 (MMP-2; concentration 0.04 µM) it was 116.92.
For the molecule `Cn1c(O)nc2cc(C(=O)NCCCCCCCCNC(=O)Cn3cnc4c(oc5ccccc54)c3=O)cnc21` [182+826 Linker 4], the “remaining enzyme activity (% of control)” value at MMP-9 (MMP-9, concentration 0.13 µM) is 96.35; on MMP-9 (MMP-9, concentration 0.50 µM) it was 93.10; at MMP-9 (MMP-9, concentration 2.01 µM), 95.02; at MMP-9 (MMP-9, concentration 8.03 µM), 95.39; at MMP-9 (MMP-9, concentration 128.50 µM) it was 75.89; on MMP-9 (MMP-9, concentration 514.00 µM) it was 61.85. The “remaining activity (%)” value on MMP-2 (MMP-2, concentration 0.12 µM) was 92.61; at MMP-2 (MMP-2, concentration 0.49 µM), 95.31; on MMP-2 (MMP-2, concentration 1.95 µM) it was 84.32; at MMP-2 (MMP-2, concentration 7.81 µM), 92.35; at MMP-2 (MMP-2, concentration 31.25 µM), 84.58; on MMP-2 (MMP-2, concentration 125.00 µM), 82.25. On MMP-2 (MMP-2, concentration 500.00 µM), the “remaining activity (%)” value was 42.45. In addition, the IC50 at MMP-2 (setting [2]) came to 439 ± 56.5 µM.
On to `Cn1c(O)nc2cc(C(=O)NCCCCCCCCNC(=O)Cn3cnc4c(oc5ccccc54)c3=O)cnc21` [182_826 4], for which the IC50 at MMP-2 (setting [4]) turned out to be 439 µM.
Take `O=C(CNC(=O)NC12CC3CC(CC(C3)C1)C2)NCCCCCCCCNC(=O)c1cncc(O)c1` [66_828 4]: the IC50 on MMP-9 (setting [3]) was determined as 247 µM.
Take `Cn1c(O)nc2cc(C(=O)NCC34CC5CC(CC(C5)C3)C4)cnc21` [66_826 1]: the IC50 on MMP-9 (setting [3]) stood at 234 µM.
In the case of `O=C(CNC(=O)NC12CC3CC(CC(C3)C1)C2)NCCSCC(=O)NCc1c[nH]nn1` [66_787 24], the IC50 on MMP-2 (setting [4]) is 861 µM.
For the molecule `Cn1c(O)nc2cc(C(=O)NCCNC(=O)CSCCNC(=O)Cn3cnc4c(oc5ccccc54)c3=O)cnc21` [182_826 24], the IC50 at MMP-9 (setting [3]) was found to be 281 µM.
Turning to `Cn1c(O)nc2cc(C(=O)NCCOCCOCCNC(=O)Cn3cnc4c(oc5ccccc54)c3=O)cnc21` [182_826 10], the IC50 at MMP-9 (setting [3]) was 283 µM.
Take `O=C(CCC(=O)NCc1c[nH]nn1)NCCOCCOCCNC(=O)CNC(=O)NC12CC3CC(CC(C3)C1)C2` [66_787 10]: the IC50 at MMP-2 (setting [4]) was determined as 578 µM.
